Assay results as given in patent publication US8551541B2, “Disinfectant making air fresh and preparation and method and use thereof” (priority 2009, dated 2013).

System: influenza A virus FM1 strain
Type: cell-based

NC(=O)c1ncn([C@@H]2O[C@H](CO)[C@@H](O)[C@H]2O)n1 [Ribavirin]
inhibitory effect on FM1 (in words): markedly inhibitory effect
